The nature of the series: Dynamic moisture sorption (DMS) analysis of crystalline forms. The settings on record: for DMS: weight picked up at 90% RH / DMS: increase of weight at about 90% relative humidity: isotherm 25° C.; for DMS: increase of weight at about 90% relative humidity: physical-property summary tables; for Hygroscopicity by DMS (in words): up to 90% RH; for Change of crystal form during DMS analysis (in words): high % RH. It is filed as physicochemical. As for the experimental part:
Further characterization with respect to hygroscopicity of the crystalline forms can be gauged by, for example, dynamic moisture sorption (DMS). The DMS features reported herein can vary by plus or minus about 5% relative humidity. The DMS features reported herein can also vary by plus or minus about 5% weight change.
Samples are prepared for dynamic moisture-sorption analysis by placing ˜5 mg to ˜20 mg of compound in a tarred sample holder on the VTI balance. The instrument is a dynamic moisture-sorption analyzer, VTI Corporation, SGA-100, equipment #0228. A drying step is run at 40° C. and ˜1% RH for 1 h. The isotherm temperature is 25° C. A % weight change over 10 min (5 weight readings) of dm/dt=0.010 or 2 h, whichever occurs first, is required before continuing to the next step. The water content of the sample equilibrated as described above was determined from 30% RH to 90% RH and then back down to 10% RH.

Structures can show the parent of a compound that is named as a salt.

On to `O.O=C(COC[C@H]1CC[C@H](COC(=O)N(c2ccccc2)c2ccc(Cl)cc2)CC1)NCCS(=O)(=O)[O-].O=C(COC[C@H]1CC[C@H](COC(=O)N(c2ccccc2)c2ccc(Cl)cc2)CC1)NCCS(=O)(=O)[O-].[Mg+2]` [Compound Ia magnesium salt hydrate, magnesium 2-(2-(((1r,4r)-4-(((4-chlorophenyl)(phenyl)carbamoyloxy)methyl)cyclohexyl)methoxy)acetamido)ethanesulfonate hydrate], for which the “DMS: weight picked up at 90% RH” value worked out at 1.2 % by weight, the “DMS: increase of weight at about 90% relative humidity” value was “FIG. 14: Increase of 1.2% weight at about 90% relative humidity” and the “Hygroscopicity by DMS (in words)” value was “slightly hygroscopic”.

`O=C(COC[C@H]1CC[C@H](COC(=O)N(c2ccccc2)c2ccc(Cl)cc2)CC1)NCCS(=O)(=O)O` [Compound Ia TRIS salt, 2-(2-(((1r,4r)-4-(((4-Chlorophenyl)(phenyl)carbamoyloxy)methyl)cyclohexyl)methoxy)acetamido)ethanesulfonic Acid]: the “DMS: weight picked up at 90% RH” value is recorded as “about 1.2 % by weight” and the “Hygroscopicity by DMS (in words)” value was “slightly hygroscopic”.

With `O.O=C(COC[C@H]1CC[C@H](COC(=O)N(c2ccccc2)c2ccc(Cl)cc2)CC1)NCCS(=O)(=O)[O-].O=C(COC[C@H]1CC[C@H](COC(=O)N(c2ccccc2)c2ccc(Cl)cc2)CC1)NCCS(=O)(=O)[O-].[Ca+2]` [Compound Ia calcium salt hydrate I, calcium 2-(2-(((1r,4r)-4-(((4-chlorophenyl)(phenyl)carbamoyloxy)methyl)cyclohexyl)methoxy)acetamido)ethanesulfonate hydrate I], the “DMS: weight picked up at 90% RH” value was “about 7 % by weight”, the “Change of crystal form during DMS analysis (in words)” value is on record as “converting to Compound Ia calcium salt hydrate IV”, the “DMS: increase of weight at about 90% relative humidity” value is recorded as “FIG. 17: Increase of 7% weight at about 90% relative humidity” and the “Hygroscopicity by DMS (in words)” value is reported as “hygroscopic”.

With `O.O=C(COC[C@H]1CC[C@H](COC(=O)N(c2ccccc2)c2ccc(Cl)cc2)CC1)NCCS(=O)(=O)[O-].[K+]` [Compound Ia potassium salt hydrate, potassium 2-(2-(((1r,4r)-4-(((4-chlorophenyl)(phenyl)carbamoyloxy)methyl)cyclohexyl)methoxy)acetamido)ethanesulfonate hydrate], the “DMS: weight picked up at 90% RH” value is recorded as 3-4 % by weight and the “Hygroscopicity by DMS (in words)” value is on record as “slightly hygroscopic”.

Turning to `O.O=C(COC[C@H]1CC[C@H](COC(=O)N(c2ccccc2)c2ccc(Cl)cc2)CC1)NCCS(=O)(=O)O` [Compound Ia free acid hydrate, 2-(2-(((1r,4r)-4-(((4-chlorophenyl)(phenyl)carbamoyloxy)methyl)cyclohexyl)methoxy)acetamido)ethanesulfonic acid hydrate], the “DMS: weight picked up at 90% RH” value was “over 10 % by weight”, the “Change of crystal form during DMS analysis (in words)” value is “form a new hydrate crystal phase at high % RH values”, the “DMS: increase of weight at about 90% relative humidity” value is reported as “FIG. 3: Increase of about 10% weight at about 90% relative” and the “Hygroscopicity by DMS (in words)” value is reported as “hygroscopic”.

Consider `N=C(N)NCCC[C@H](N)C(=O)O.O.O=C(COC[C@H]1CC[C@H](COC(=O)N(c2ccccc2)c2ccc(Cl)cc2)CC1)NCCS(=O)(=O)O` [Compound Ia L-arginine salt hydrate, L-arginine 2-(2-(((1r,4r)-4-(((4-chlorophenyl)(phenyl)carbamoyloxy)methyl)cyclohexyl)methoxy)acetamido)ethanesulfonate hydrate], for which the “DMS: weight picked up at 90% RH” value is “about 1 % by weight”, the “DMS: increase of weight at about 90% relative humidity” value is on record as “FIG. 31: Increase of about 1% weight at about 90% relative” and the “Hygroscopicity by DMS (in words)” value is listed as “slightly hygroscopic”.

Values taken from patent US20120225937A1, “CRYSTALLINE FORMS AND PROCESSES FOR THE PREPARATION OF PG12 RECEPTOR AGONISTS” (Arena Pharmaceuticals, Inc., priority 2009, published 2012).
